Results published in ChEMBL document CHEMBL5653631, “A Potent and Selective ULK1 Inhibitor Suppresses Autophagy and Sensitizes Cancer Cells to Nutrient Stress” (iScience, 2018).
Values belong to the molecule of their own block, whether it stands above or below them.

Columns and labels:
[1] = target: Serine/threonine-protein kinase PAK 3 (Homo sapiens) (UniProt O75914); experiment: Inhibition of human recombinant PAK3 at 500 nM in presence of ATP by radiometric assay relative to control
[2] = target: T1, Mitogen-activated protein kinase kinase kinase kinase 2 (Homo sapiens) (UniProt Q12851); experiment: Inhibition of human recombinant GCK at 500 nM related to control ULK1
T1 sequence (whole entry): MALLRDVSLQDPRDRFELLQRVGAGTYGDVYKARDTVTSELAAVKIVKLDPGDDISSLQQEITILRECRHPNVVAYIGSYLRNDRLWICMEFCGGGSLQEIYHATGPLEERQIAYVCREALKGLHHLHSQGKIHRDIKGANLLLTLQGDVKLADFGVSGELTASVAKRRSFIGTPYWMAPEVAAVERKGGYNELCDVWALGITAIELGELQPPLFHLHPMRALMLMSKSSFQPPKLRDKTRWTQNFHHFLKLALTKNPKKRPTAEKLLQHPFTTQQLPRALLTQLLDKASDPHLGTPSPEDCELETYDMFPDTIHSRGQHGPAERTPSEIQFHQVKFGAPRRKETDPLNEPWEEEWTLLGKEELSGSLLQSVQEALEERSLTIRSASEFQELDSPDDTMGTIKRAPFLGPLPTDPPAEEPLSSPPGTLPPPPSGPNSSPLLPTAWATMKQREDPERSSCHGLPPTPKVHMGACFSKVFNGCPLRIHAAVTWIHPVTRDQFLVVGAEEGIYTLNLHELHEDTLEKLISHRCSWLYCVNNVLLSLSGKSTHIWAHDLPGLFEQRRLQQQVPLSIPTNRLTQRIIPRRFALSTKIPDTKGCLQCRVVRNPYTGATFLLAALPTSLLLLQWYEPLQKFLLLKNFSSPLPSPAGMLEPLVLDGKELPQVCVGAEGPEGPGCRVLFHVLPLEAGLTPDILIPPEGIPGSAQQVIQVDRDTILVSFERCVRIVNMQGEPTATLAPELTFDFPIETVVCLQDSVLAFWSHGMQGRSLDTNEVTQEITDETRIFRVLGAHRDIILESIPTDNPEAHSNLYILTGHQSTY

[3] = target: Vascular endothelial growth factor receptor 1 (Homo sapiens) (UniProt P17948); experiment: Inhibition of human recombinant FLT1 at 500 nM in presence of ATP by radiometric assay relative to control
Chain of Vascular endothelial growth factor receptor 1 (Homo sapiens) (P17948 whole entry): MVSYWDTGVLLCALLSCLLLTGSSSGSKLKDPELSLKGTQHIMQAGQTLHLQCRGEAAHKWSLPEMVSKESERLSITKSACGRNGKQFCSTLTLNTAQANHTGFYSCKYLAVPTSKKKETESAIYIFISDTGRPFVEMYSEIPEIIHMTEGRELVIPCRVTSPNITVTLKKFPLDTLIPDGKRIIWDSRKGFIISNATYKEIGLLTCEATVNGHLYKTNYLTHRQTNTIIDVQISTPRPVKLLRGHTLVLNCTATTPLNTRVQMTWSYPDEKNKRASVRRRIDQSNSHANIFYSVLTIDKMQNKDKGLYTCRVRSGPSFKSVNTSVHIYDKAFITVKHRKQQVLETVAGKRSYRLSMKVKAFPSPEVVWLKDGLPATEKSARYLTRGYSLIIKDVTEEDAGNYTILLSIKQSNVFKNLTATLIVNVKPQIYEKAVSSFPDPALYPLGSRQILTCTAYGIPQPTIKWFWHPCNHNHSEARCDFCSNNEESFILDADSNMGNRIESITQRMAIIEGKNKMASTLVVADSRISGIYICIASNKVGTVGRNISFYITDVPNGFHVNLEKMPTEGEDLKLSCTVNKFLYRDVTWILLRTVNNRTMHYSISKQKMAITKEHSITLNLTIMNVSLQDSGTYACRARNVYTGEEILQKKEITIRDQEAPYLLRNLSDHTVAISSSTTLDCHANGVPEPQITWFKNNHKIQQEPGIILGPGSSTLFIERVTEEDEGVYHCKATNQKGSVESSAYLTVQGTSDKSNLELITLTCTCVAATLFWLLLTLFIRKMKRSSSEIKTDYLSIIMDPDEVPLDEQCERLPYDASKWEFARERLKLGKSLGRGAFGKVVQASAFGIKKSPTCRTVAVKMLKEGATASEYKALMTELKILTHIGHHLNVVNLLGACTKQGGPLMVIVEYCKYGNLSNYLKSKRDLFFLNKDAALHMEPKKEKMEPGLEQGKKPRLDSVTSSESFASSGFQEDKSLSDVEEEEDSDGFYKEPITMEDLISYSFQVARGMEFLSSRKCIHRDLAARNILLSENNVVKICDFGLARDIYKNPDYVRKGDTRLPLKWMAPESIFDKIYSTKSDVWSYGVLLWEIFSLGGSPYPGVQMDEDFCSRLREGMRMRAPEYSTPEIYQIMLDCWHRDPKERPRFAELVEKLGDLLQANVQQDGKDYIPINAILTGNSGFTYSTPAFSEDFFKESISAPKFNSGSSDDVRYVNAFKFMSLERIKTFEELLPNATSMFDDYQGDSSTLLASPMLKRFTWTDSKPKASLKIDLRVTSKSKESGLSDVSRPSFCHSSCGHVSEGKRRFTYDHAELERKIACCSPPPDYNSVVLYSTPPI

[4] = target: Eukaryotic translation initiation factor 2-alpha kinase 1 (Homo sapiens) (UniProt Q9BQI3); experiment: Inhibition of human recombinant HRI at 15 nM related to control ULK1
Chain of Eukaryotic translation initiation factor 2-alpha kinase 1 (Homo sapiens) (Q9BQI3 whole entry): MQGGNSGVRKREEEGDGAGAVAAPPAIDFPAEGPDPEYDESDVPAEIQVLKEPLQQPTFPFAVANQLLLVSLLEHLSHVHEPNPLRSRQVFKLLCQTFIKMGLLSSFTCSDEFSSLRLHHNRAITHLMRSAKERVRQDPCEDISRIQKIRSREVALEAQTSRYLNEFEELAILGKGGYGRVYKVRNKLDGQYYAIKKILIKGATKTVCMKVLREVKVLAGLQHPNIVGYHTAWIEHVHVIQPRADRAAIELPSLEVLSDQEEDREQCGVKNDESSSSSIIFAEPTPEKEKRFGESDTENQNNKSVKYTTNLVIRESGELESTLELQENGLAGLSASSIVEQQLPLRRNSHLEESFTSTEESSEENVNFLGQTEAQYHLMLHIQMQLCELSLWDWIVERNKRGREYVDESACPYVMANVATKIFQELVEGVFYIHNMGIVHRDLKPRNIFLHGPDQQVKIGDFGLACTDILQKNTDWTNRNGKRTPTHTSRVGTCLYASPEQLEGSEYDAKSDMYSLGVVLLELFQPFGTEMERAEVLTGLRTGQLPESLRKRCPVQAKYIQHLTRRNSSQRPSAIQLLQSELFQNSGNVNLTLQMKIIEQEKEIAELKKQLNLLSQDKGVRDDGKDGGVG

[5] = target: Fibroblast growth factor receptor 1 (Homo sapiens) (UniProt P11362); experiment: Inhibition of human recombinant FGFR1 at 15 nM related to control ULK1
Chain of Fibroblast growth factor receptor 1 (Homo sapiens) (P11362 22-822 limits assumed): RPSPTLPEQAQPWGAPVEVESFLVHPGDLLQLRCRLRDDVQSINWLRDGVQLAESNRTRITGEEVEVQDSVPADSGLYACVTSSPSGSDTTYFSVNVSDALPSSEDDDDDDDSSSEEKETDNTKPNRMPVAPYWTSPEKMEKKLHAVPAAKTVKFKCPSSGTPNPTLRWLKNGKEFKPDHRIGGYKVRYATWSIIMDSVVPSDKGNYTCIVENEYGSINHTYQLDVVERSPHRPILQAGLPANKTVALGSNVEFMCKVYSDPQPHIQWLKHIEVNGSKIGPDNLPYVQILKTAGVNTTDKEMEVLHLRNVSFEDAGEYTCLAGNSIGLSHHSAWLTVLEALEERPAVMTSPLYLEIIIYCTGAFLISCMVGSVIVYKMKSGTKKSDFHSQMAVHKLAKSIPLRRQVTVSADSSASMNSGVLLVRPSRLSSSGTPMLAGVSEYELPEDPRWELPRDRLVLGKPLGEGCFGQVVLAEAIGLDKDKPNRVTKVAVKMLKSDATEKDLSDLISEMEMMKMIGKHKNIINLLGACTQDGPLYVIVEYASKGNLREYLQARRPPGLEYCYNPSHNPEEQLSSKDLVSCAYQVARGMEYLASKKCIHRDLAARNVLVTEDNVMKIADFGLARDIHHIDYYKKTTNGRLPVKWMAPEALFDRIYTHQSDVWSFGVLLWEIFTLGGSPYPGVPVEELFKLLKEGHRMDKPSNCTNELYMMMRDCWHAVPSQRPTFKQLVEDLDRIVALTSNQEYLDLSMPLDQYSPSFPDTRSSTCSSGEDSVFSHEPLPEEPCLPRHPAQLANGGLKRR

[6] = target: Proto-oncogene tyrosine-protein kinase Src (Homo sapiens) (UniProt P12931); experiment: Inhibition of human recombinant SRC at 15 nM related to control ULK1
Chain of Proto-oncogene tyrosine-protein kinase Src (Homo sapiens) (P12931 2-536 limits assumed): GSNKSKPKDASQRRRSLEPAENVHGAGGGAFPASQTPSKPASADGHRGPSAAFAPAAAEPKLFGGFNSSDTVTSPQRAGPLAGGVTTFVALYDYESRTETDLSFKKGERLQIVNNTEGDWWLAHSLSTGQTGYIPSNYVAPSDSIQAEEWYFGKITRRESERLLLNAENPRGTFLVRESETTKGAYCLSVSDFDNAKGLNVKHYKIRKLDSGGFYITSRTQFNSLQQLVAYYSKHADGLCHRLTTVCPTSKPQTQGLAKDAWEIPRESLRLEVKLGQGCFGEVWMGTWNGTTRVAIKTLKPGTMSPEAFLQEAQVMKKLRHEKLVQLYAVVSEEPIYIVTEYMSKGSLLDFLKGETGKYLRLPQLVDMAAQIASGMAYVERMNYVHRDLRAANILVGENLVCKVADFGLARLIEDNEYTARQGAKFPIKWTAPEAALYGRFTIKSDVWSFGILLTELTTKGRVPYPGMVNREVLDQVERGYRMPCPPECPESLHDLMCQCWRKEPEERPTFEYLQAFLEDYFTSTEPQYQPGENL

[7] = target: T2, Mitogen-activated protein kinase kinase kinase 2 (Homo sapiens) (UniProt Q9Y2U5); experiment: Inhibition of human recombinant MAP3K2 at 40 nM in presence of ATP by radiometric assay relative to control
T2 sequence (whole entry): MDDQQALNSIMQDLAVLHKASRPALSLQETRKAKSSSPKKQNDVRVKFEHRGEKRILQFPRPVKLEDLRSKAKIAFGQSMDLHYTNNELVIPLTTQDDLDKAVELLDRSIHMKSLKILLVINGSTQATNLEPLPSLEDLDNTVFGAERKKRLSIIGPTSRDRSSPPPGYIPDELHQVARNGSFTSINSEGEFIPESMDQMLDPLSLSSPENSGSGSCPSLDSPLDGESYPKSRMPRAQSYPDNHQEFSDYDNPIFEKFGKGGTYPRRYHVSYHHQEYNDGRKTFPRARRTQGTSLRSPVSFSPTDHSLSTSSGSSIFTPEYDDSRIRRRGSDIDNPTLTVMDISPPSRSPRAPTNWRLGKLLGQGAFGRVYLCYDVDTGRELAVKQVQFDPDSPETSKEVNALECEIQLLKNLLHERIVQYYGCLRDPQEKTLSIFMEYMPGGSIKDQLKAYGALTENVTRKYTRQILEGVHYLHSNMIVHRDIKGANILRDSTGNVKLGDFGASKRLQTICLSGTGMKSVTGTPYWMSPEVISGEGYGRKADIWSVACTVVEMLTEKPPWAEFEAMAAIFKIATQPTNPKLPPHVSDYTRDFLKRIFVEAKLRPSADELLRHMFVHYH

[8] = target: Tyrosine-protein kinase Fes/Fps (Homo sapiens) (UniProt P07332); experiment: Inhibition of human recombinant FES at 40 nM in presence of ATP by radiometric assay relative to control
Chain of Tyrosine-protein kinase Fes/Fps (Homo sapiens) (P07332 whole entry): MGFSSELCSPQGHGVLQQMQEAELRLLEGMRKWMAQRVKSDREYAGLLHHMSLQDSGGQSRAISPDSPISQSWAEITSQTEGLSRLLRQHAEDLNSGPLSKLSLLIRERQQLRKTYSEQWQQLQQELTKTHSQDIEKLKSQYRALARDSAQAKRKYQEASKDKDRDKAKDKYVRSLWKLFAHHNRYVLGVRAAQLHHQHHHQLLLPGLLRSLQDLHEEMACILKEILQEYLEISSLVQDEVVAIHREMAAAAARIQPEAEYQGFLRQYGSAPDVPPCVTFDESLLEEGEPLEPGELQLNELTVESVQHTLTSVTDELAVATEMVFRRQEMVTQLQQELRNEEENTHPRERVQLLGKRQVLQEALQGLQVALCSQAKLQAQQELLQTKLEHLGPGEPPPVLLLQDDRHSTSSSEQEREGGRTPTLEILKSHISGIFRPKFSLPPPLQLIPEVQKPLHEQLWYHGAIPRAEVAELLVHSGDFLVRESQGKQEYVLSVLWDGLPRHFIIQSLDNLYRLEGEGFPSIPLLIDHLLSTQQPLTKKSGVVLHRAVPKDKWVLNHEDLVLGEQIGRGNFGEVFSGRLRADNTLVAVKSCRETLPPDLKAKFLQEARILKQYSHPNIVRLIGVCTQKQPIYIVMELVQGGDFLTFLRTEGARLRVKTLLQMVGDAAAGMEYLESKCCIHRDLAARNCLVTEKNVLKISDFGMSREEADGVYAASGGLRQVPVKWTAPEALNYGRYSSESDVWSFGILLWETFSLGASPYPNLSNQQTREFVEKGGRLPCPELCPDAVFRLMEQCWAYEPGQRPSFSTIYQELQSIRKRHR

[9] = target: Tyrosine-protein kinase SYK (Homo sapiens) (UniProt P43405); experiment: Inhibition of human recombinant SYK at 40 nM related to control ULK1
[10] = target: T3, Serine/threonine-protein kinase D3 (Homo sapiens) (UniProt O94806); experiment: Inhibition of human recombinant PKD3 at 40 nM related to control ULK1
T3 sequence (whole entry): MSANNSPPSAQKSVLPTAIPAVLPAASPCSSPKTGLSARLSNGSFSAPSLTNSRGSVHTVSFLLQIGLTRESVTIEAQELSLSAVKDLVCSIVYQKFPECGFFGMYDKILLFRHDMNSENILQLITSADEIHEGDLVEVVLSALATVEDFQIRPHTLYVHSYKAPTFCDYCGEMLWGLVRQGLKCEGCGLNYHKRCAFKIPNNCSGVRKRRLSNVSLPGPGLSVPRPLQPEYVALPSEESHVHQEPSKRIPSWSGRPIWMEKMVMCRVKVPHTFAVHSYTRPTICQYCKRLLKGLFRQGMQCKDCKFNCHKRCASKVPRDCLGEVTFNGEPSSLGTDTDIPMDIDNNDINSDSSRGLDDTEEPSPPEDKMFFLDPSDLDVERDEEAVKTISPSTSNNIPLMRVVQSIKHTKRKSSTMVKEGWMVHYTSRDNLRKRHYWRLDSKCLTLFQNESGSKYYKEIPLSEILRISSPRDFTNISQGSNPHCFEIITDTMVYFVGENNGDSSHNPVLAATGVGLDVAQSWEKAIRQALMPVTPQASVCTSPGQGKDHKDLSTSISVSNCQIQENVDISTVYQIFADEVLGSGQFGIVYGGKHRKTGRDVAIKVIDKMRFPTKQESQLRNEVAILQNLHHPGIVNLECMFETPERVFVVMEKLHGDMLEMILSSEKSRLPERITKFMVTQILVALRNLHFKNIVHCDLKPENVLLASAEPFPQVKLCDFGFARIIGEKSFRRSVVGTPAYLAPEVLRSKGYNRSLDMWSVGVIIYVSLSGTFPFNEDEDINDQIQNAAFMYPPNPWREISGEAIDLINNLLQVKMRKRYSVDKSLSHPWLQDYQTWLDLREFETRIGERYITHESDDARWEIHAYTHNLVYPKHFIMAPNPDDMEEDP

Chain of Serine/threonine-protein kinase PAK 3 (Homo sapiens) (O75914 whole entry, looked up): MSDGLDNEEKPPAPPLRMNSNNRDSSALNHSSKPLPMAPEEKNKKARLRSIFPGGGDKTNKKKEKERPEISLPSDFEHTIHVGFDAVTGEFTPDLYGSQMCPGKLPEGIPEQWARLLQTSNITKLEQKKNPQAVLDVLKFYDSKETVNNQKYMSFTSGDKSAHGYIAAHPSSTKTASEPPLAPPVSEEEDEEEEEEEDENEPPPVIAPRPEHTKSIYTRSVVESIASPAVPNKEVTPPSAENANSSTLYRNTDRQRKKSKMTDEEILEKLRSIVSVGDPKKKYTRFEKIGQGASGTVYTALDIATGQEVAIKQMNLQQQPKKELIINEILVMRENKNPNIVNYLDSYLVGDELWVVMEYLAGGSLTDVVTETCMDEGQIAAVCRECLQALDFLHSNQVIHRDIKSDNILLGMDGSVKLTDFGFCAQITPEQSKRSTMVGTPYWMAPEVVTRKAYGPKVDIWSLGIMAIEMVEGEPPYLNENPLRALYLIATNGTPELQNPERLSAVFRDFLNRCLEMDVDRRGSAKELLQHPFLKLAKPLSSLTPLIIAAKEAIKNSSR

- inhibition [1]: 9%
- fold change (FC) [2]: 0.45
- inhibition [3]: 2%
SMILES: CNC(=O)c1ccccc1Oc1nc(Nc2cc(OC)c(OC)c(OC)c2)ncc1Br

- fold change (FC) [4]: 0
- fold change (FC) [5]: 0
- fold change (FC) [6]: 0.17
SMILES: CC(C)[C@H](NC(=O)c1cc(-c2cnn3cc(-c4ccc(OCCN5CCCCC5)cc4)cnc23)cs1)C(F)(F)F

- inhibition [7]: 0%
- inhibition [8]: 15%
- fold change (FC) [9]: 0
- fold change (FC) [10]: 0.1
SMILES: O=C(N[C@@H](C1CC1)C(F)(F)F)c1cc(-c2cnn3cc(-c4ccc(F)cc4)cnc23)cs1
